Here are results for four compounds from patent publication US20210228530A1, “TAXANE-LIPID-POLYSACCHARIDE DUAL CONJUGATES, PREPARATION METHODS THEREOF AND USES THEREOF” (Santolecan Pharmaceuticals LLC, priority 2018, published 2021).

In brackets after ≈: the same amount, converted by molar mass.

Series [1] relates to metastatic malignant melanoma cancer. The conditions noted are these: patients with metastatic malignant melanoma cancer; Ann. Oncol., 2011; cited from earlier work.
The next series concerns MCF-7 tumor cells. Put plainly: In vitro antitumor activity, MTT assay, MCF-7. Type of series: cell-based. The conditions noted are these: Homo sapiens, MCF7, 72 h treatment, conjugates in taxane molar equivalents. How it is done: (§1) In order to determine if the activity of the prepared intermediates and prepared conjugates, we evaluated their antitumor activities by using MTT assay.
(§2) All cell lines were maintained in a humidified atmosphere containing 5% CO2 at 37° C. in different media supplemented with 10% FBS, 100 U/ml penicillin, and 100 μg/ml streptomycin. MCF-7, NCI-H460 or OVCAR-3 tumor cells were seeded into a 96-well cell culture plate and incubated overnight. The 96-well culture plate was taken out from the incubator, and the conjugates or mixture of different compounds or polysaccharides were added into it. […] Three wells were set at each concentration. Blank control contained tumor cells in normal medium without any sample. After treatment for 72 h, 20 μL of 3-(4, 5-dimethylthiazole-2)-2,5-diphenyltetrazolium bromide (MTT) were added to each well and incubated for 4 hours at 37° C. […] The half-inhibitory concentration (IC50 value) of each compound or conjugate was calculated.
A general note: Tetrazolium assays rely on reduction of a dye to a coloured formazan, in cell work by metabolically active cells.

The test system of the next series is NCI-H460 tumor cells. Put plainly: In vitro antitumor activity, MTT assay, NCI-H460. Type of series: cell-based. As to conditions: Homo sapiens, 72 h treatment, conjugates in taxane molar equivalents. How it is done: as §1, §2
Series [2] concerns OVCAR-3 (drug resistance) tumor cells. Put plainly: In vitro antitumor activity, MTT assay, OVCAR-3. Type of series: cell-based. As to conditions: Homo sapiens, 72 h, taxane molar equivalents, molar ratio of taxane to lipid (Paclitaxel:DHA) 1:0, 1:1, 1:2, 1:4 per row. On the procedure: as §1
All cell lines were maintained in a humidified atmosphere containing 5% CO2 at 37° C. in different media supplemented with 10% FBS, 100 U/ml penicillin, and 100 μg/ml streptomycin. MCF-7, NCI-H460 or OVCAR-3 tumor cells were seeded into a 96-well cell culture plate and incubated overnight. The 96-well culture plate was taken out from the incubator, and the conjugates or mixture of different compounds or polysaccharides were added into it. The concentration of each compound or conjugate were set to 500 nM, 200 nM, 100 nM, 50 nM, 25 nM, 12.5 nM, 6 nM, 3 nM and 1 nM. Three wells were set at each concentration. Blank control contained tumor cells in normal medium without any sample. After treatment for 72 h, 20 μL of 3-(4, 5-dimethylthiazole-2)-2,5-diphenyltetrazolium bromide (MTT) were added to each well and incubated for 4 hours at 37° C. After the removal of the supernatant, MTT formazan was dissolved in 150 μl dimethyl sulfoxide (DMSO) and monitored using a microplate reader at a wavelength of 570 nm. The half-inhibitory concentration (IC50 value) of each compound or conjugate was calculated.

A short description of series [3]: Enhanced solubility test for poorly water-soluble compounds. In kind it is physicochemical. The conditions noted are these: 1.0 mg alone in 2.0 ml distilled water, sonicated for 1 minute.
The nature of series [4]: In vivo safety assay in xenograft nude mice: body weight and death. On the set-up: species or system BALB/c (nu/nu) mice. The conditions noted are these: whole experiment period; 8.0 mg/kg docetaxel or equimolar dose, i.v. once a week, 4 weeks. On the procedure:
BALB/c (nu/nu) mice (20±2 g, 4-6 weeks old) were housed under pathogen-free conditions. Cancer cells such MCF-7 and NCI-H460 5.0×10^6, suspended in 100 μl PBS, were subcutaneously inoculated into the lower right rank of the nude mice. When the tumor size reached 100-150 mm^3, the mice were divided randomly into different groups (n=6 in each group). The control group received the solvent only. […] The mice were treated for 4 weeks. After the administration, the mice are raised normally. The tumor volume and mouse body weight were measured on every 3 days.

The conditions of series [5]: literature report, drugbank.ca; cited from earlier work.

As to `CC/C=C\C/C=C\C/C=C\C/C=C\C/C=C\C/C=C/CCC(=O)O[C@@H](C(=O)O[C@H]1C[C@@]2(O)[C@@H](OC(=O)c3ccccc3)C3[C@](C)(C(=O)[C@H](OC(C)=O)C(=C1C)C2(C)C)[C@@H](O)C[C@H]1OC[C@@]31OC(C)=O)[C@@H](NC(=O)c1ccccc1)c1ccccc1` (stereo partly drawn) [DHA-paclitaxel], the “final survival rates versus dacarbazine group” value in series [1] is listed as “no significant differences in final survival rates”.
A word on the IC50: it is the concentration at which inhibition is half-maximal. As to `CO[C@H]1C(=O)[C@]2(C)[C@@H](OC)C[C@H]3OC[C@@]3(OC(C)=O)[C@H]2[C@H](OC(=O)c2ccccc2)[C@]2(O)C[C@H](OC(=O)[C@H](O)[C@@H](NC(=O)OC(C)(C)C)c3ccccc3)C(C)=C1C2(C)C` [Cabazitaxel, cabazitaxel], the IC50 in the series with MCF-7 tumor cells turned out to be 8.3 ± 0.5 nM; in the series with NCI-H460 tumor cells, 7.1 ± 0.3 nM.
For `CC(=O)O[C@H]1C(=O)[C@@]2(C)[C@H]([C@H](OC(=O)c3ccccc3)[C@]3(O)C[C@H](OC(=O)[C@H](O)[C@@H](NC(=O)c4ccccc4)c4ccccc4)C(C)=C1C3(C)C)[C@]1(OC(C)=O)CO[C@@H]1C[C@@H]2O` [Paclitaxel, paclitaxel], the 50% inhibitory concentration (IC50) with MCF-7 tumor cells was determined as 21.9 ± 1.1 nM; in series [2] it was 57.6 ± 6.3 nM; in the series with NCI-H460 tumor cells, 17.9 ± 1.3 nM. Besides, the “observation of the compound alone in water” value in series [3] is recorded as “undissolved powder floated over water surface was clearly observed”.
`CC(=O)O[C@@]12CO[C@@H]1C[C@H](O)[C@@]1(C)C(=O)[C@H](O)C3=C(C)[C@@H](OC(=O)[C@H](O)[C@@H](NC(=O)OC(C)(C)C)c4ccccc4)C[C@@](O)([C@@H](OC(=O)c4ccccc4)[C@H]21)C3(C)C` [Docetaxel, docetaxel]: the “death of nude mice” value in series [4] is “no death”. Moreover, the figures for the IC50 in the series on MCF-7 tumor cells and with NCI-H460 tumor cells were 9.5 ± 0.2 nM and 6.7 ± 0.6 nM, respectively. The “solubility in water (literature)” value in series [5] is 1.27 µg/mL (≈ 1.57 µM). Besides, the “observation of the compound alone in water” value in series [3] is “undissolved powder floated over water surface was clearly observed”.
